Assay results from US5386011A, “Hexapeptide anaphylatoxin-receptor ligands” (priority 1990, dated 1995).
Where a name gives a salt, the structure may show the parent alone. Where a SMILES comes first, the peptide text is derived from it. [ ]: non-standard residue; d: D form. The star is where a group is joined. Phe(4-I) = N[C@@H](Cc1ccc(I)cc1)C(=O)O; d1Nal = N[C@H](Cc1cccc2ccccc12)C(=O)O; NMeF = CN[C@@H](Cc1ccccc1)C(=O)O; Cha = N[C@@H](CC1CCCCC1)C(=O)O; dCha = N[C@H](CC1CCCCC1)C(=O)O; dPhg = N[C@@H](C(=O)O)c1ccccc1; NMe(benzyl) = CN(Cc1ccccc1)*; dNle = CCCC[C@@H](N)C(=O)O; Nle = CCCC[C@H](N)C(=O)O; Tfa = O=C(C(F)(F)F)*

Target: T1, C5a Receptor (Homo sapiens, UniProt P21730)
T1 construct: 2.5-25 ug/mL of purified PMNL membrane fragments; endogenous in cells; host or cells: PMNL (polymorphonuclear leukocytes), purified membrane fragments
T1 sequence (P21730 1-350): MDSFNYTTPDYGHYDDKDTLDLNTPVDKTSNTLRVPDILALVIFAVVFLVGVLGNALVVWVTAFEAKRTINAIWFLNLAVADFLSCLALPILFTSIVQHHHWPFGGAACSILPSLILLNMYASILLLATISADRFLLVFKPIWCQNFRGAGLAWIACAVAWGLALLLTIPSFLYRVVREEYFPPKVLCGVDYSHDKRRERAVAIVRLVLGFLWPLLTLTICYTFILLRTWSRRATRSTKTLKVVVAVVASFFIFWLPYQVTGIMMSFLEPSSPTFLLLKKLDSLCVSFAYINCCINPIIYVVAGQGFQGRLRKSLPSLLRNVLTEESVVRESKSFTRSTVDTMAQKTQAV
Test: Anaphylatoxin receptor binding Ki determination: inhibition of 125I-C5a binding to purified PMNL membrane fragments
Details: 0.03-1 nM 125I-C5a, 2.5-25 ug/mL purified PMNL membrane fragments, filtration; read-out: Ki (In vitro C5a Receptor Binding Potency)
Method: Specific inhibition of C5a binding activity of representative compounds of the present invention was measured using 0.03-1 nM ^125 I-C5a with 2.5-25 ug/mL of purified PMNL membrane fragments (Borregaard, N.; Heiple, J. M.; Simons, E. R.; and Clark, R. A. J. Cell. Biol. 1983, 97, 52-61.). Free and membrane-bound ligand were separated by filtration.

SMILES | Ki
CC(C)(C)CC(N)C(=O)N[C@@H](CCCCN)C(=O)N1CCC[C@H]1C(=O)N[C@H](CC1CCCCC1)C(=O)N[C@@H](CC1CCCCC1)C(=O)N[C@H](CCCNC(=N)N)C(=O)O (mixture of isomers) [Example 6, H-{(R/S)-t-Butylalanyl}-Lysyl-Prolyl-{(2R)-2-Amino-3-cyclohexylproanoyl}-{(2S)-2-Amino-3-cyclohexylpropanoyl}-DArginyl-OH] | 80 nM
CN[C@@H](Cc1ccccc1)C(=O)N[C@@H](CCCCN)C(=O)N[C@@H](CCC(=O)O)C(=O)N[C@H](CC1CCCCC1)C(=O)N[C@@H](Cc1ccccc1)C(=O)N[C@H](CCCNC(=N)N)C(=O)O [Example 40, (N-Methyl)Phenylalanyl-Lysyl-Glutamyl-{(2R)-2-Amino-3-cyclohexylpropanoyl}-Phenylalanyl-DArginyl-OH] (H-[NMeF]KE[dCha]F[dR]-OH) | 100 nM
N=C(N)NCCC[C@@H](NC(=O)[C@H](CC1CCCCC1)NC(=O)[C@@H](CC1CCCCC1)NC(=O)[C@H](CCCCN)NC(=O)[C@H](CCCCN)NC(=O)[C@@H](N)Cc1ccccc1)C(=O)O [Example 58, H-Phenylalanyl-Lysyl-Lysyl-{(2R)-2-Amino-3-cyclohexylpropanoyl}-{(2S)-2-Amino-3-cyclohexylpropanoyl}-DArginyl-OH] (H-FKK[dCha][Cha][dR]-OH) | 11 nM
CN[C@@H](Cc1ccccc1)C(=O)N[C@@H](CCCCN)C(=O)N1CCC[C@H]1C(=O)N[C@H](CC1CCCCC1)C(=O)N[C@@H](CC1CCCCC1)C(=O)N[C@H](CCCNC(=N)N)C(=O)N(C)Cc1ccccc1 [Example 97, (N-Methyl)Phenylalanyl-Lysyl-Prolyl-{(2R) -2-Amino-3-cyclohexylpropanoyl}-{(2S)-2-Amino-3-cyclohexylpropanoyl}-DArginyl-N-(Methyl)(Benzyl)] (H-[NMeF]KP[dCha][Cha][dR]-{NMe(benzyl)}) | 520 nM
CC(C)C[C@H](NC(=O)[C@H](CC1CCCCC1)NC(=O)[C@H](CC1CCCCC1)NC(=O)[C@H](CCCCN)NC(=O)[C@@H](N)Cc1ccc(I)cc1)C(=O)N[C@H](C)C(=O)N[C@@H](CCCNC(=N)N)C(=O)O [Example 107, H-(p-Iodo)Phenylalanyl-Lysyl-{(2S)-2-Amino-3-cyclohexylpropanoyl}-{(2S)-2-Amino-3-cyclohexylpropanoyl}-Leucyl-DAlanyl-Arginyl-OH] (H-[Phe(4-I)]K[Cha][Cha]L[dA]R-OH) | 3600 nM
CC(=O)N[C@@H](Cc1ccccc1)C(=O)N[C@@H](CCCCN)C(=O)N[C@@H](C)C(=O)N[C@H](CC1CCCCC1)C(=O)N[C@@H](CC1CCCCC1)C(=O)N[C@H](CCCNC(=N)N)C(=O)O [Example 120, N-Acetyl-Phenylalanyl-Lysyl-Alanyl-{(2R)-2-Amino-3-cyclohexylpropanoyl}-{(2S)-2-Amino-3-cyclohexylpropanoyl}-DArginyl-OH] (Ac-FKA[dCha][Cha][dR]-OH) | 110 nM
CN[C@@H](Cc1ccccc1)C(=O)N[C@@H](CCCCN)C(=O)N1CCC[C@H]1C(=O)N[C@H](CC1CCCCC1)C(=O)N[C@@H](Cc1ccccc1)C(=O)N[C@H](CCCNC(=N)N)C(=O)O [Example 128, (N-Methyl) Phenylalanyl-Lysyl-Prolyl-{(2R)-2-Amino-3-cyclohexylpropanoyl}-Phenylalanyl-DArginyl-OH] (H-[NMeF]KP[dCha]F[dR]-OH) | 39 nM
CN[C@@H](Cc1ccccc1)C(=O)N[C@@H](CCCCN)C(=O)N[C@@H](C)C(=O)N[C@H](CC1CCCCC1)C(=O)N[C@@H](CC1CCCCC1)C(=O)N[C@H](CCCNC(=N)N)C(=O)O [Example 152, (N-Methyl)Phenylalanyl-Lysyl-Alanyl-{(2R)-2-Amino-3-cyclohexylpropanoyl}-{(2S)-2-Amino-3-cyclohexylpropanoyl}-DArginyl-OH] (H-[NMeF]KA[dCha][Cha][dR]-OH) | 83 nM
CN[C@@H](Cc1ccccc1)C(=O)N[C@@H](CCCCN)C(=O)N1CCC[C@H]1C(=O)N[C@H](CC1CCCCC1)C(=O)N[C@@H](CC1CCCCC1)C(=O)N[C@H](CCCNC(=N)N)C(=O)O [Example 166, (N-Methyl)Phenylalanyl-Lysyl-Prolyl-{(2R)-2-Amino-3-cyclohexylpropanoyl}-{(2S)-2-Amino-3-cyclohexylpropanoyl}-DArginyl-OH] (H-[NMeF]KP[dCha][Cha][dR]-OH) | 35 nM
CCCC[C@H](NC(=O)[C@H](Cc1ccccc1)NC)C(=O)N1CCC[C@H]1C(=O)N[C@H](CC1CCCCC1)C(=O)N[C@@H](CC1CCCCC1)C(=O)N[C@H](CCCNC(=N)N)C(=O)O [Example 187, (N-Methyl)Phenylalanyl-Norleucyl-Prolyl-{(2R)-2-Amino-3-cyclohexylpropanoyl}-{(2S)-2-Amino-3-cyclohexylpropanoyl}-DArginyl-OH] (H-[NMeF][Nle]P[dCha][Cha][dR]-OH) | 300 nM
CC(C)C[C@@H](NC(=O)[C@H](CC1CCCCC1)NC(=O)[C@H](CC1CCCCC1)NC(=O)[C@H](C)NC(=O)[C@H](CCCCN)NC(=O)[C@@H](N)Cc1ccccc1)C(=O)N[C@@H](CCCNC(=N)N)C(=O)O [Example 195, H-Phenylalanyl-Lysyl-Alanyl-{(2S)-2-Amino-3-cyclohexylpropanoyl}-{(2S)-2-Amino-3-cyclohexylpropanoyl}-DLeucyl-Arginyl-OH] (H-FKA[Cha][Cha][dL]R-OH) | 1500 nM
CN[C@@H](Cc1ccccc1)C(=O)N[C@@H](CCCCN)C(=O)N1CCC[C@H]1C(=O)N[C@H](CC1CCCCC1)C(=O)N[C@@H](Cc1ccccc1)C(=O)N[C@H](Cc1ccccc1)C(=O)O [Example 212, (N-Methyl)Phenylalanyl-Lysyl-Prolyl-{(2R)-2-Amino-3-cyclohexylpropanoyl}-Phenylalanyl-DPhenylalanyl-OH] (H-[NMeF]KP[dCha]F[dF]-OH) | 110 nM
CC(C)C[C@H](NC(=O)[C@H](CC1CCCCC1)NC(=O)[C@H](CC1CCCCC1)NC(=O)[C@H](C)NC(=O)[C@H](CCCCN)NC(=O)[C@@H](N)Cc1ccccc1)C(=O)N[C@H](CCCNC(=N)N)C(=O)O [Example 214, H-Phenylalanyl-Lysyl-Alanyl-{(2S)-2-Amino-3-cyclohexylpropanoyl}-{(2S)-2-Amino-3-cyclohexylpropanoyl}-Leucyl-DArg] (H-FKA[Cha][Cha]L[dR]-OH) | 90 nM
CN[C@@H](Cc1ccccc1)C(=O)N[C@@H](CCCCN)C(=O)N1CCC[C@H]1C(=O)N[C@H](Cc1cccc2ccccc12)C(=O)N[C@@H](Cc1ccccc1)C(=O)N[C@H](CCCNC(=N)N)C(=O)O [Example 224, (N-Methyl)Phenylalanyl-Lysyl-Prolyl-D(1-Naphthylalanyl)-Phenylalanyl-DArginyl-OH] (H-[NMeF]KP[d1Nal]F[dR]-OH) | 12 nM
CN[C@@H](Cc1ccccc1)C(=O)N[C@@H](CCCCNC(=O)C(F)(F)F)C(=O)N1CCC[C@H]1C(=O)N[C@H](CC1CCCCC1)C(=O)N[C@@H](CC1CCCCC1)C(=O)N[C@H](CCCNC(=N)N)C(=O)O [Example 305, (N-Methyl)Phenylalanyl-Lysyl(N-epsilon-trifluoroacetyl)-Prolyl-{(2R)-2-Amino-3-cyclohexylpropanoyl}-{(2S)-2-Amino-3-cyclohexylpropanoyl}-DArginyl-OH] (H-[NMeF]K(Tfa)P[dCha][Cha][dR]-OH) | 220 nM
CC(C)[C@H](NC(=O)[C@H](CCCCN)NC(=O)[C@@H](N)Cc1ccccc1)C(=O)N[C@H](CC1CCCCC1)C(=O)N[C@@H](CC1CCCCC1)C(=O)N[C@H](CCCNC(=N)N)C(=O)O [Example 360, H-Phenylalanyl-Lysyl-Valyl-{(2R)-2-Amino-3-cyclohexylpropanoyl}-{(2S)-2-Amino-3-cyclohexylpropanoyl}-DArginyl-OH] (H-FKV[dCha][Cha][dR]-OH) | 53 nM
CN[C@@H](Cc1ccccc1)C(=O)N[C@@H](CCCCN)C(=O)N1CCC[C@H]1C(=O)N[C@H](CC1CCCCC1)C(=O)N[C@@H](Cc1ccccc1)C(=O)N[C@@H](C(=O)O)c1ccccc1 [Example 367, (N-Methyl)Phenylalanyl-Lysyl-Prolyl-{(2R)-2-Amino-3-cyclehexylpropanoyl}-Phenylalanyl-{(R)-Phenylglycinyl}-OH] (H-[NMeF]KP[dCha]F[dPhg]-OH) | 1900 nM
C[C@H](NC(=O)[C@H](CCCCN)NC(=O)[C@@H](N)Cc1ccccc1)C(=O)N[C@H](CC1CCCCC1)C(=O)N[C@@H](CC1CCCCC1)C(=O)N[C@H](CCCNC(=N)N)C(=O)O [Example 370, H-Phenylalanyl-Lysyl-Alanyl-{(2R)-2-Amino-3-cyclohexylpropanoyl}-{(2S)-2-Amino-3-cyclohexylpropanoyl}-DArginyl-OH] (H-FKA[dCha][Cha][dR]-OH) | 85 nM
CCCC[C@@H](NC(=O)[C@H](CC(C)C)NC(=O)[C@H](CC1CCCCC1)NC(=O)[C@H](CC1CCCCC1)NC(=O)[C@H](C)NC(=O)[C@H](CCCCN)NC(=O)[C@@H](N)Cc1ccccc1)C(=O)O [Example 390, H-Phenylalanyl-Lysyl-Alanyl-{(2S)-2-Amino-3-cyclohexylpropanoyl}-{(2S)-2-Amino-3-cyclohexylpropanoyl}-Leucyl-DNorleucyl-OH] (H-FKA[Cha][Cha]L[dNle]-OH) | 4000 nM
